Consider two sequences from publication PMC5078025, “Necrosis-inducing peptide has the beneficial effect on killing tumor cells through neuropilin (NRP-1) targeting” (Oncotarget, 2016).

Data set [1] concerns subcutaneous CT26 colorectal carcinoma tumors. Description: Tumor volume in mice bearing subcutaneous CT26 tumors. Type of data set: in vivo. To be noted: BALB/c mice bearing CT26 tumor, i.v. of 1 mM TU:MTDs twice or three times, n = 3, observed until 9 days. How it is done:
Figure 1 Identification of TU17:MTD as a tumor targeting peptide (A) Schematic diagram of the fusion peptides consisting of the tumor-homing motif, linker, and mitochondrial targeting domain (MTD). (B) Tumors were generated over 2 weeks after s.c. injection of CT26 cells into the backs of BALB/c mice. […] Arrows indicate the points of peptide injection. P values < 0.02 (control group vs TU17:MTD at day 5, 6, 7, 8, and 9) (C) HCT116, HeLa, A549, MCF-7, PC3, and BJAB cells were treated with TU17:MTD (0 ~ 20 μM) for 30 minutes, and cell viability was monitored using XTT assays. *P < 0.05 (D) Primary splenocytes and macrophages were treated with TU17:MTD (0 ~ 20 μM) for 30 minutes, and cell viability was monitored by XTT assay. *P < 0.05 (E) CT26 cells were treated with R8:MTD, TU17:MTD, TU17-2:MTD or TU17:MTD^4A (0 ~ 40 μM) for 4 hours, and cell viability was monitored by XTT assay. Results in C to E are expressed as means ± SD (triplicates), and are representative of at least two independent experiments. P values are for experimental groups versus controls and were calculated using Dunnett's t-test. *P < 0.05.
Figure 3 Effects of TU17:MTD, TU17-2:MTD, and TU17-2:D(KLAKLAK)2 on tumor tissues in vivo (A) Tumors were generated over 7~8 days after s.c. injection of CT26 cells into the backs of BALB/c mice. […]

The next data set has as its system BALB/c mice. Put plainly: Toxicity and movement activity after i.v. injection. To be noted: for Movement Activities: BALB/c (around 20 gm) mice, i.v. single dose 75 μl of 1 mM, within 30 minutes; for toxicity by mouse movements: BALB/c mice, i.v. single dose 75 μl of 1 mM per mouse, movements within 30 minutes, observed up to one week. The procedure: To design a MTD peptide anti-cancer drug, the MTD peptide was fused to various known tumor-homing motifs through its N-terminal or C-terminal region, and a linker was introduced between these two motifs to impart flexibility and minimize steric hindrance (Figure 1A, Supplementary Table S1). The MTD peptides fused with tumor-homing motifs (hereafter designated TU:MTDs) were synthesized as linear or cyclic entities using L-amino acids (Supplementary Table S1), and were evaluated for their killing activity using CT26 cells in vitro (Supplementary Figure S1). […] Thus, BALB/c mouse movements were also evaluated within 30 minutes of the intravenous injection of a single dose of 75 μl of 1 mM TU:MTDs per mouse. […] We also searched for a TU:MTD with a potent in vivo effect by observing tumor volumes in three BALB/c mice bearing CT26 adenocarcinoma that were injected with 100 μl of 1 mM TU:MTDs per day for 2 or 3 consecutive days (Figure 1B). […] The tumor-homing motif of TU17:MTD has a “RPARPAR” sequence containing the C-end rule (CendR) element that has known to bind to neuropilin-1 (NRP-1), although the “RPARPAR” sequence is located at the N-terminus of the MTD rather than at the C-terminus. […]
1 mM) were i.v. injected into BALB/c (around 20 gm) mice at a single dose. “Slow” means not moving around in the cage.
“Normal” means normally moving around in the cage. “Toxic” means necrosis in tail vein within 2 ~ 3 days after injection.
Abbreviation: NR; no regression, ND; not determined. […]

Bridge positions count the residues as written; N and C are the ends. Ends that are not written are not given here.

Take CNGRCVSGCAGRCGGKLLNLISKLF [TU2:MTD]: in data set [1], the Toxicity/Tumor growth result was “NR (NR; no regression)”. Besides, in the data set with BALB/c mice, the “Movement Activities” value is on record as “Normal” and the “toxicity by mouse movements” value is “no apparent toxicities”.

Take “KLLNLISKLFCRGDKRLYDC (disulfide 11-20 (inferred)) [TU11:MTD]”: the Toxicity/Tumor growth result in data set [1] is on record as “Toxic”. Also, in the data set with BALB/c mice, the “Movement Activities” value was “Slow” and the “toxicity by mouse movements” value is reported as “toxic”.
